In experiment [1] the test system is VEGF-stimulated HUVEC proliferation (Human Umbilical Vein Endothelial cells). Briefly: HUVEC Proliferation Assay. Type of experiment: cell-based. The following applies: VEGF 50 ng/mL, 72 h, CyQuant fluorescent dye, read-out: inhibited VEGF-stimulated HUVEC proliferation at a level. The protocol:
Human Umbilical Vein Endothelial cells are purchased from Clonetics, Inc., as cryopreserved cells harvested from a pool of donors. These cells, at passage 1, are thawed and expanded in EBM-2 complete medium, until passage 2 or 3. The cells are trypsinized, washed in DMEM+10% FBS+antibiotics, and spun at 1000 rpm for 10 min. Prior to centrifugation of the cells, a small amount is collected for a cell count. After centrifugation, the medium is discarded, and the cells are resuspended in the appropriate volume of DMEM+10% FBS+antibiotics to achieve a concentration of 3×10^5 cells/mL. Another cell count is performed to confirm the cell concentration. The cells are diluted to 3×10^4 cells/mL in DMEM+10% FBS+antibiotics, and 100 μL of cells are added to a 96-well plate. The cells are incubated at 37° C. for 22 h.
Prior to the completion of the incubation period, compound dilutions are prepared. Five-point, five-fold serial dilutions are prepared in DMSO, at concentrations 400-fold greater than the final concentrations desired. 2.5 μL of each compound dilution are diluted further in a total of 1 mL DMEM+10% FBS+antibiotics (400× dilution). Medium containing 0.25% DMSO is also prepared for the 0 μM compound sample. At the 22 h time point, the medium is removed from the cells, and 100 μL of each compound dilution is added. The cells are incubated at 37° C. for 2-3 h.
During the compound pre-incubation period, the growth factors are diluted to the appropriate concentrations. Solutions of DMEM+10% FBS+antibiotics, containing either VEGF or bFGF at the following concentrations: 50, 10, 2, 0.4, 0.08, and 0 ng/mL are prepared. For the compound-treated cells, solutions of VEGF at 550 ng/mL or bFGF at 220 ng/mL for 50 ng/mL or 20 ng/mL final concentrations, respectively, are prepared since 10 μL of each will be added to the cells (110 μL final volume). At the appropriate time after adding the compounds, the growth factors are added. VEGF is added to one set of plates, while bFGF is added to another set of plates. For the growth factor control curves, the media on wells B4-G6 of plates 1 and 2 are replaced with media containing VEGF or bFGF at the varying concentrations (50-0 ng/mL). The cells are incubated at 37° C. for an additional 72 h.
At the completion of the 72 h incubation period, the medium is removed, and the cells are washed twice with PBS. After the second wash with PBS, the plates are tapped gently to remove excess PBS, and the cells are placed at −70° C. for at least 30 min. The cells are thawed and analyzed using the CyQuant fluorescent dye (Molecular Probes C-7026), following the manufacturer's recommendations. The plates are read on a Victor/Wallac 1420 workstation at 485 nm/530 nm (excitation/emission). Raw data are collected and analyzed using a 4-parameter fit equation in XLFit. IC50 values are then determined.

The next experiment addresses T1, CYP 2D6 (Homo sapiens, UniProt P10635).
T1 construct: followed by 555.6 ml of 20 mg/mL HLM (BD Gentest); tissue BD Gentest; host or cells: human liver microsomes
Briefly: Human Liver Microsome CYP 2D6 Inhibition. The format is in vitro ADME. The note with it: human liver microsomes, bufuralol substrate; read-out: inhibited CYP2D6 microsomes, IC50. As to the method: Determining the IC-50 for Human Liver Microsome CYP 2D6 Inhibition
Postassium Phosphate Buffer pH 7.4 (39.333 mL) is chilled in an ice bath and added to a 50 ml plastic tube. A 3.2 mM bufuralol solution is prepared. 111.1 ul of 3.2 mM bufuralol is added to the buffer followed by 555.6 ml of 20 mg/mL HLM (BD Gentest). The incubation mixture was gently inverted and equilibrated at 37° C. for 5 min. A stock inhibitor solution is prepared, such as in DMSO. Incubation mixture (801 ul) is added into 96-well, 1.2 mL plastic tubes. Inhibitor is added at various concentrations (e.g. 30 μM to […]). The tubes are sealed and mix by inverting 5 times gently. The incubation mixture containing inhibitor (270 μL) is added by aliquot into wells of a 1 mL, 96-well block (duplicate). The block is placed into a 37° C. water bath and equilibrated for 3 minutes. 10 mM NADPH (30 ml) is added to all samples. After 5 min, the reactions are stopped by adding 300 ml of Quench Solution [0.1% TFA in CH3CN]. 1′-OH-bufuralol-d9 (750 ng/mL 30 μL) is added, the block is gently vortexed then centrifuged at 3000 rpm for 10 min at 4° C. 50 μL of supernatant from all samples is added by aliquot into a shorter, 96-well block. The aliquoted supernatants are pooled with other assay(s) and HPLC Grade Water (50 μL) is added to all samples. After covering and shaking by vortex gently for 2 minutes, the solutions were analyzed by LC-MS (API 3000, 5% MeOH w/0.1% AcOH to 95% MeOH w/0.1% AcOH). 500 nM quinidine is used as a control.

Consider 20 molecules from US8247556B2, “Method for preparing 6-substituted-7-aza-indoles” (Amgen Inc., priority 2005, dated 2012).

T1 sequence (P10635 whole entry): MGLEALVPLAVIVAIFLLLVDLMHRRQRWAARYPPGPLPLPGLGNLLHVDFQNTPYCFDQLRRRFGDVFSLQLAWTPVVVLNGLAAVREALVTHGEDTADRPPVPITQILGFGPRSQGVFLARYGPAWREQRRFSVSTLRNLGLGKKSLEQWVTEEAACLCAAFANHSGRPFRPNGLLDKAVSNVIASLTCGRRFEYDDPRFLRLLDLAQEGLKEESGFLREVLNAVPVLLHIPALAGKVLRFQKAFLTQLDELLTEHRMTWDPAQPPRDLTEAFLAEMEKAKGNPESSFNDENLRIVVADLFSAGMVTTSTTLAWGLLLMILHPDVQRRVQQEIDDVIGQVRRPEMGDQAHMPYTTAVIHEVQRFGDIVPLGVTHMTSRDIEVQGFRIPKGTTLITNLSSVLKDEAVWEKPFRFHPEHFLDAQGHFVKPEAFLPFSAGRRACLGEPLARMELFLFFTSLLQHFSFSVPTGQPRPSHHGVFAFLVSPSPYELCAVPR

For `Cc1nc2cc(NC(=O)c3cc(F)cnc3NCc3ccnc4[nH]ncc34)ccc2s1` [Example 116, 5-fluoro-N-(2-methyl-1,3-benzothiazol-5-yl)-2-((1H-pyrazolo[3,4-b]pyridin-4-ylmethyl)amino)-3-pyridinecarboxamide], the IC50 in experiment [1] is under 500 nM; at CYP 2D6 it was over 20000 nM.
For `CC(=O)N1CC(C)(C)c2ccc(NC(=O)c3cccnc3NCc3ccnc4c3CCN4)cc21` [Example 29, N-(1-Acetyl-3,3-dimethyl-2,3-dihydro-1H-indol-6-yl)-2-[(2,3-dihydro-1H-pyrrolo[2,3-b]pyridin-4-ylmethyl)amino]nicotinamide], in that order: under 500 nM and over 20000 nM.
For `CC1(C)CC(=O)Nc2cc(NC(=O)c3cc(F)cnc3NCc3ccnc4[nH]ccc34)ccc21` [Example 81, N-(4,4-dimethyl-2-oxo-1,2,3,4-tetrahydro-7-quinolinyl)-5-fluoro-2-((1H-pyrrolo[2,3-b]pyridin-4-ylmethyl)amino)-3-pyridinecarboxamide], in that order: under 500 nM and over 20000 nM.
On to `CC1(C)CN(S(C)(=O)=O)c2cc(NC(=O)c3cccnc3NCc3ccnc4[nH]ccc34)ccc21` [Example 61, N-(1-Methanesulfonyl-3,3-dimethyl-2,3-dihydro-1H-indol-6-yl)-2-[(1H-pyrrolo[2,3-b]pyridin-4-ylmethyl)-amino]-nicotinamide], for which the IC50 in experiment [1] is under 500 nM; on CYP 2D6 it was over 20000 nM.
For `CC(=O)N1CC(C)(C)c2ccc(NC(=O)c3cccnc3NCc3ccnc4[nH]ccc34)cc21` [Example 6, N-(1-Acetyl-3,3-dimethyl-2,3-dihydro-1H-indol-6-yl)-2-[(1H-pyrrolo[2,3-b]pyridin-4-ylmethyl)amino]nicotinamide], in that order: under 500 nM and over 20000 nM.
For `Cc1ccc(NC(=O)c2cc(F)cnc2NCc2ccnc3[nH]ccc23)cc1F` [Example 111, 5-fluoro-N-(3-fluoro-4-methylphenyl)-2-((1H-pyrrolo[2,3-b]pyridin-4-ylmethyl)amino)-3-pyridinecarboxamide], the IC50 in experiment [1] was under 500 nM.
With `Cc1nc2cc(NC(=O)c3ccc(F)nc3NCc3ccnc4[nH]ccc34)ccc2s1` [Example 37, 2-((1H-Pyrrolo[2,3-b]pyridin-4-yl)methylamino)-6-fluoro-N-(2-methylbenzo[d]thiazol-5-yl)nicotinamide], in experiment [1], the IC50 is under 500 nM.
Still for that read-out and setting: under `O=C(Nc1cc(CCCN2CCCCC2)cc(C(F)(F)F)c1)c1cccnc1NCc1ccnc2[nH]ccc12` [Example 62, N-[3-(3-Piperidin-1-yl-propyl)-5-trifluoromethyl-phenyl]-2-[(1H-pyrrolo[2,3-b]pyridin-4-ylmethyl)-amino]-nicotinamide] stands under 500 nM.
The same measure, in the same setting: under `O=C(Nc1cc(O[C@@H]2CCOC2)cc(C(F)(F)F)c1)c1cccnc1NCc1ccnc2[nH]ccc12` [Example 47, 2-[(1H-pyrrolo[2,3-b]pyridin-4-ylmethyl)amino]-N-[3-[(3R)-tetrahydrofuran-3-yloxy]-5-(trifluoromethyl)phenyl]nicotinamide] stands under 500 nM; under `CC1(C)CCNc2cc(NC(=O)c3cccnc3NCc3ncnc4[nH]ccc34)ccc21` [Example 131, N-(4,4-Dimethyl-1,2,3,4-tetrahydro-7-quinolinyl)-2-((7H-pyrrolo[2,3-d]pyrimidin-4-ylmethyl)amino)-3-pyridinecarboxamide], under 500 nM; under `O=C(Nc1ccc(C(F)(F)C(F)(F)F)c(CN2CCNCC2)c1)c1cccnc1NCc1ccnc2[nH]ccc12` [Example 45, N-(4-Pentafluoroethyl-3-piperazin-1-ylmethyl-phenyl)-2-[(1H-pyrrolo[2,3-b]pyridin-4-ylmethyl)-amino]-nicotinamide], under 500 nM.
On the same count and under the same terms, to `CN1CCN(Cc2cc(NC(=O)c3cccnc3NCc3ccnc4[nH]ccc34)ccc2C(F)(F)C(F)(F)F)CC1` [Example 46, N-[3-(4-Methyl-piperazin-1-ylmethyl)-4-pentafluoroethyl-phenyl]-2-[(1H-pyrrolo[2,3-b]pyridin-4-ylmethyl)-amino]-nicotinamide] belongs under 500 nM.
Regarding `Cc1nc2cc(NC(=O)c3cc(F)cnc3NCc3ccnc4[nH]ccc34)ccc2s1` [Example 77, 5-fluoro-N-(2-methyl-1,3-benzothiazol-5-yl)-2-((1H-pyrrolo[2,3-b]pyridin-4-ylmethyl)amino)-3-pyridinecarboxamide], the IC50 in experiment [1] was under 500 nM.
On the same count and under the same terms, under `O=C(Nc1ccc(Cl)c(C(F)(F)F)c1)c1cc(F)cnc1NCc1ccnc2[nH]ncc12` [Example 119, N-(4-Chloro-3-(trifluoromethyl)phenyl)-5-fluoro-2-((1H-pyrazolo[3,4-b]pyridin-4-ylmethyl)amino)-3-pyridinecarboxamide] stands under 500 nM.
On the same count and under the same terms, under `Cc1ccc(NC(=O)c2cc(F)cnc2NCc2ccnc3[nH]ccc23)cc1Cl` [Example 110, N-(3-chloro-4-methylphenyl)-5-fluoro-2-((1H-pyrrolo[2,3-b]pyridin-4-ylmethyl)amino)-3-pyridinecarboxamide] stands under 500 nM; under `CN1CCC(Cc2cc(NC(=O)c3cccnc3NCc3ccnc4[nH]ccc34)cc(C(F)(F)F)c2)CC1` [Example 58, N-[3-(1-Methyl-piperidin-4-ylmethyl)-5-trifluoromethyl-phenyl]-2-[(1H-pyrrolo[2,3-b]pyridin-4-ylmethyl)-amino]-nicotinamide], under 500 nM.
Still for that read-out and setting: under `O=C(Nc1ccc(C(F)(F)F)c(F)c1)c1cc(F)cnc1NCc1ccnc2[nH]ncc12` [Example 128, 5-Fluoro-N-(3-fluoro-4-(trifluoromethyl)phenyl)-2-((1H-pyrazolo[3,4-b]pyridin-4-ylmethyl)amino)-3-pyridinecarboxamide] stands under 500 nM; under `Cc1ccc(NC(=O)c2cc(F)cnc2NCc2ccnc3[nH]ccc23)cc1` [Example 109, 5-fluoro-N-(4-methylphenyl)-2-((1H-pyrrolo[2,3-b]pyridin-4-ylmethyl)amino)-3-pyridinecarboxamide], under 500 nM; under `O=C(Nc1ccc(C(O)(C(F)(F)F)C(F)(F)F)cc1)c1cccnc1NCc1ccnc2[nH]ccc12` [Example 17, 2-[(1H-Pyrrolo[2,3-b]pyridin-4-ylmethyl)amino]-N-{4-[2,2,2-trifluoro-1-hydroxy-1-(trifluoromethyl)ethyl]phenyl}nicotinamide], under 500 nM.
Take `CC1(C)CN(C(=O)CN)Cc2cc(NC(=O)c3cccnc3NCc3ccnc4[nH]ccc34)ccc21` [Example 15, N-(2-Glycyl-4,4-dimethyl-1,2,3,4-tetrahydroisoquinolin-7-yl)-2-[(1H-pyrrolo[2,3-b]pyridin-4-ylmethyl)amino]nicotinamide]: on CYP 2D6, the IC50 is over 20000 nM.
